Read-outs that look alike come from different tables or passages of the source.
Legend:
AdV 4 = assay: Antiviral EC50 against AdV 4 (method not given); format: cell-based, adenovirus 4; conditions: Human mastadenovirus E; AdV 4, summary table
AdV 6 = assay: Antiviral EC50 against AdV 6 (method not given); format: cell-based, adenovirus 6; conditions: Human mastadenovirus C; AdV 6, summary table
AdV 8 = assay: Antiviral EC50 against AdV 8 (method not given); format: cell-based, adenovirus 8; conditions: unidentified adenovirus; AdV 8, summary table
Adenovirus 6 (AdV6) = assay: Neutral red survival assay, AdV6 in A549 cells; format: cell-based
Description: (§1) Similar experiments were carried out with filociclovir against adenovirus 6, adenovirus 7, and adenovirus 8.
(§2) The neutral red cell cytotoxicity assay is used to detect cell viability or drug cytotoxicity. The principle of this assay is based on the detection of viable cells via the uptake of the dye neutral red. Neutral red is a eurhodin dye that stains lysosomes in viable cells. Viable cells can take up neutral red via active transport and incorporate the dye into their lysosomes, but non-viable cells cannot not take up this chromophore. Consequently, after washing, viable cells can release the incorporated dye under acidified-extracted conditions. The amount of released dye can be used to determine the total number of viable cells or drug cytotoxicity. As such, cytotoxicity is expressed as a concentration-dependent reduction of the uptake of neutral red after exposure to the compound under investigation.
(§3) Neutral red survival assays were carried out in a 96-well format. Briefly, A549 adenocarcinomic human alveolar basal epithelial cells were plated at a concentration of 6×10^3 cells per well one day prior to infection. AdV6 infections were carried out at 5×10^3 PFU per well (an estimated 0.5 PFU/cell at the time of infection). […] Filociclovir plates were read and the results were graphed using GraphPad Prism graphing and statistical software (GraphPad Software, San Diego, Calif.).

[1] = Cytotoxicity, neutral red, uninfected drug control wells of A549 cells; format: cell-based; conditions: human, AdV6 row of Table 2
Source text: as §2
as §3, with “infection). Filociclovir was serially diluted 1:3 on separate 96-well plates with a no drug final row as control.” for “infection).”

AdV7 = assay: CPE reduction assay, adenovirus 7; format: cell-based
Description: as §1

[2] = Pharmacokinetics in immunosuppressed Syrian hamsters; format: in vivo; conditions: for detectability after administration (FIG. 5): 6 hours after administration
Description: In order to test the pharmacokinetics of filociclovir, Syrian hamsters were given either an oral (p.o. 50 mg/kg) or intravenous (i.v. 10 mg/kg) dose of filociclovir.
For i.v. administration, filociclovir was dissolved in DMSO (Sigma D2650) and then diluted with water to a final concentration of 5 mg/ml for filociclovir and 75% DMSO. The dosing solutions were prepared one day before use and stored at 4° C.
Male hamsters were purchased from Envigo (Harlan) at ˜100 g body weight. […] The animals received three injections of CP before the administration of filociclovir. Two groups of animals (12 hamsters/group) were used for the two routes of administrations. In addition, three untreated animals (the same three hamsters for both routes) served as mock controls. The p.o. and i.v. experiments were performed on two consecutive days. As the hamsters weighed approximately 100 g, (+/−10%), they were administered 1 ml and 0.2 ml for the p.o. and i.v. routes, respectively, to achieve the desired dose. For both routes, 3 hamsters were sacrificed at 0.5, 1, 3, and 6 h post dosing.
Plasma and liver samples were collected from all animals and stored at −80° C. until analyzed by LC MS as follows: • All samples and standards were processed on ice; • Standard curve is constructed with authentic compound (fresh powder DMSO reconstitution spiked into “blank” Hamster plasma) and all samples spiked with 500 ng/mL carbamezapine (Internal Standard); • Early time point samples are diluted in “blank” hamster plasma (try to attain concentrations on the standard curve); • Sample extracted with 2× sample volume with 0.1% ammonium formate in methanol (i.e. 30 μL sample+60 μL 0.1% ammonium formate in methanol); • Extracted samples centrifuged on maximum setting in microfuge; • Supernatants are analyzed by LC/MS/MS Dynamic Multiple Reaction Monitoring (DMRM) utilizing custom method.

CMV = conditions: β Herpesvirus, cited from earlier work
HHV-6A = conditions: β Herpesvirus, cited from earlier work
HHV-6B = conditions: cited from earlier work
EBV = conditions: γ Herpesvirus, cited from earlier work
HHV-8 = conditions: γ Herpesvirus, cited from earlier work
BK Virus = conditions: Polyomavirus, cited from earlier work
JC Virus = conditions: Polyomavirus, cited from earlier work
Adenovirus 5 (AdV5) = conditions: AdV 5‡, summary table; cited from earlier work
ocular AdV infections = conditions: literature, cited from earlier work

SMILES: Nc1nc2c(ncn2/C=C2/CC2(CO)CO)c(=O)[nH]1 [Filociclovir, 2-amino-9-{(Z)-[2,2-bis(hydroxymethyl)cyclopropylidene]methyl}-3,9-dihydro-6H-purin-6-one]
- EC50 (AdV 4): 2400 nM
- EC50 (AdV 6): 2000 nM
- EC50 (AdV 8): 2000 nM
- concentration effective to improve viability of AdV6 infected cells (FIG. 2) (Adenovirus 6 (AdV6); A549 cells, 6 days post-infection, 'as low as'): ≥ 10^−1 μM
- CC50/EC50 (Adenovirus 6 (AdV6); AdV6): 27
- CC50 at 6 days [1]: > 100000 nM
- CC50/EC50 (AdV7): >144
- oral bioavailability ([2]; hamsters): good oral bioavailability
- detectability after administration (FIG. 5) ([2]; i.v. 10 mg/kg): still detectable
- detectability after administration (FIG. 5) ([2]; p.o. 50 mg/kg): still detectable
- EC50 (CMV; listed as filociclovir): ≤ 10000 nM
- EC50 (CMV): 1000 ± 600 nM
- EC50 (HHV-6A; listed as filociclovir): ≤ 10000 nM
- EC50 (HHV-6A): 1300 nM
- EC50 (HHV-6B): 2300 ± 1000 nM
- EC50 (HHV-6B; listed as filociclovir): ≤ 10000 nM
- EC50 (EBV; listed as filociclovir): ≤ 10000 nM
- EC50 (EBV): 1000 ± 940 nM
- EC50 (HHV-8; listed as filociclovir): ≤ 10000 nM
- EC50 (HHV-8): 5600 ± 5000 nM
- EC50 (BK Virus; listed as filociclovir): ≤ 50000 nM
- EC50 (BK Virus): 34000 ± 17000 nM
- EC50 (JC Virus; listed as filociclovir): ≤ 50000 nM
- EC50 (JC Virus): 46000 ± 44000 nM
- EC50 (Adenovirus 5 (AdV5)): 2200 ± 400 nM

SMILES: Nc1ccn(C[C@@H](CO)OCP(=O)(O)O)c(=O)n1 [CDV, cidofovir, reference compound]
- ocular toxicity (ocular AdV infections; even at low doses): substantial ocular toxicity
- improvement in the symptoms or course of the disease (ocular AdV infections; ocular AdV infections): not exhibited a statistically significant improvement

Reference: patent publication US20220370464A1, “COMPOSITIONS AND METHODS OF TREATING OR PREVENTING OCULAR INFECTIONS WITH FILOCICLOVIR” (Microbiotix, Inc., priority 2019, published 2022)
